Test results published in patent publication US10393748B2, “Method for predicting efficacy of c-Met inhibitor” (Samsung Electronics Co., Ltd., priority 2014, dated 2019).

Legend:
Type in all cases: cell-based, human
[1] = test system: Lovo; experiment: Cell proliferation, Cell-Titer Glo (CTG) assay, Lovo; settings: 0.01 to 1000 nM, 72 hours
Protocol: (§1) The 4 cell lines were seeded on a 96 well plate at the same amount (1×10^4 cells/well) and cultured for 24 hours (media: RPMI (Gibco, Invitrogen), culture conditions: 37° C., 5% CO2). The cultured cells were treated with representative c-Met inhibitor, crizotinib (Selleck chemical) and PHA665752((R,Z)-5-(2,6-dichlorobenzylsulfonyl)-3-((3,5-dimethyl-4-(2-(pyrrolidin-1-ylmethyl)pyrrolidine-1-carbonyl)-1H-pyrrol-2-yl)methylene)indolin-2-one), respectively. For comparison, human control IgG (chrompure human IgG (009-000-003, JACKSON IMMUNORESEARCH LABS INC.)) as a control and anti-c-Met antibody L3-1Y/IgG2 (Reference Example) were used respectively. Each of the inhibitors (or antibody) was treated at 10-fold serial diluted concentrations from 1000 nM to 0.01 nM. 72 hours after the treatment, the level of IL-8 in cell culture of each treatment group was assayed by Cytometric Bead Array (CBA) method using BD Cytometric Bead Array kit (see Example 1.1.2). In addition, in order to verify the anticancer efficacy of the c-Met inhibitors, the cell proliferation (%) was measured at 72 hours after c-Met inhibitor treatment through Cell-Titer Glo (CTG) assay.

[2] = test system: Hs746T; experiment: Cell proliferation, Cell-Titer Glo (CTG) assay, Hs746T; settings: inhibitor concentration of 10 nM or more, 72 hours
Protocol: as §1

[3] = test system: HT29; experiment: Cell proliferation, Cell-Titer Glo (CTG) assay, HT29; settings: 0.01 to 1000 nM, 72 hours
Protocol: as §1

[4] = test system: EBC-1; experiment: Cell proliferation, Cell-Titer Glo (CTG) assay, EBC-1; settings: inhibitor concentration of 10 nM or more, 72 hours
Protocol: as §1

| Compound | cell proliferation (%) [1] | cell proliferation (%) [2] | cell proliferation (%) [3] | cell proliferation (%) [4] |
| --- | --- | --- | --- | --- |
| C[C@@H](Oc1cc(-c2cnn(C3CCNCC3)c2)cnc1N)c1c(Cl)ccc(F)c1Cl [crizotinib, 3-((R)-1-(2,6-dichloro-3-fluorophenyl)ethoxy)-5-(1-(piperidin-4-yl)-1H-pyrazol-4-yl)pyridin-2-amine] | no significant decrease | significantly inhibited | no significant decrease | significantly inhibited |
| Cc1[nH]c(/C=C2\C(=O)Nc3ccc(S(=O)(=O)Cc4c(Cl)cccc4Cl)cc32)c(C)c1C(=O)N1CCC[C@@H]1CN1CCCC1 [PHA665752, (R,Z)-5-(2,6-dichlorobenzylsulfonyl)-3-((3,5-dimethyl-4-(2-(pyrrolidin-1-ylmethyl)pyrrolidine-1-carbonyl)-1H-pyrrol-2-yl)methylene)indolin-2-one] | no significant decrease | significantly inhibited | no significant decrease | significantly inhibited |
